Results taken from patent publication US4310590A (priority 1979, dated 1982).
Converted amounts (≈) assume the structure as drawn.

Assays:
[1] = tested on: E. coli; assay: Serial Dilution Test (Broth Titer Test), antibacterial, E. coli; format: cell-based, Escherichia coli; details: for SDT, MIC: in vitro serial dilution test, E = E. coli; for MIC: Escherichia coli, read-out: SDT, MIC
Description: (§1) Antibacterial and antifungal activity were evaluated by the Serial Dilution Test (Broth Titer Test) wherein a series of broths containing varying dilutions of a test compound and an organism are halved starting with 1:1,000. The values shown represent the maximum dilution in parts per million at which the compound under evaluation renders complete control of the organism. Pseudomonas aeruginosa (P), Staphylococcus aureus (S), and Escherichia coli (E) were the bacterial organisms employed in this test, and the fungi employed were Aspergillus niger (A) and Rhizopus stolonifer (R).
(§2) ^a In vitro serial dilution test (SDT), minimum inhibitory
(§3) concentrations (MIC) against E = E. coli, P = Ps. aeruginosa, S =
(§4) Staphylococcus aureus, A = A. niger, and R = Rhizopus stolonifer are give
(§5) in parts per million of a biocide.

[2] = tested on: Ps. aeruginosa; assay: Serial Dilution Test (Broth Titer Test), antibacterial, Ps. aeruginosa; format: cell-based, Pseudomonas aeruginosa; details: for SDT, MIC: in vitro serial dilution test, P = Ps. aeruginosa; for MIC: Pseudomonas aeruginosa, read-out: SDT, MIC
Description: as §1, §2, §3, §4, §5

[3] = tested on: Rhizopus stolonifer; assay: Serial Dilution Test (Broth Titer Test), antifungal, Rhizopus stolonifer; format: cell-based; details: in vitro serial dilution test; R = Rhizopus stolonifer
Description: as §1, §2, §3, §4, §5

[4] = tested on: Staphylococcus aureus; assay: Serial Dilution Test (Broth Titer Test), antibacterial, Staphylococcus aureus; format: cell-based; details: for SDT, MIC: in vitro serial dilution test, S = Staphylococcus aureus; for MIC: Staphylococcus aureus, read-out: SDT, MIC
Description: as §1, §2, §3, §4, §5

[5] = tested on: A. niger; assay: Serial Dilution Test (Broth Titer Test), antifungal, A. niger; format: cell-based, Aspergillus niger; details: in vitro serial dilution test; for MIC: Aspergillus niger, read-out: SDT, MIC
Description: as §1, §2, §3, §4, §5

[6] = tested on: Plasmopora viticola; assay: whole plant or invertebrate; format: in vivo; details: for pest or weed control at 300 ppm / pest or weed control at 38 ppm / pest or weed control at 75 ppm: read-out: Disease Control Level, GDM
[7] = tested on: Piricularia oryzae; assay: whole plant or invertebrate; format: in vivo; details: for Disease Control Level, RB: 150 ppm
[8] = tested on: Erysiphe polygoni; assay: whole plant or invertebrate; format: in vivo; details: read-out: Disease Control Level, BPM
[9] = tested on: Phytophthora infestans; assay: whole plant or invertebrate; format: in vivo
[10] = tested on: Puccinia graminis f. sp. tritici; assay: whole plant or invertebrate; format: in vivo, Puccinia graminis f. sp. tritici race 15B-2; details: for Disease Control Level, WSR: 150 ppm, wheat seedlings
[11] = tested on: Botrytis cinerea; assay: whole plant or invertebrate; format: in vivo; details: for Disease Control Level, BOT: 150 ppm; for pest or weed control at 38 ppm / pest or weed control at 75 ppm / pest or weed control at 300 ppm: Botrytis cinerea, read-out: Disease Control Level, BOT
[12] = tested on: Helminthosporium teres; assay: whole plant or invertebrate; format: in vivo; details: Pyrenophora teres, in Hordeum vulgare, read-out: Disease Control Level, BH
[13] = Pyricularia oryzae, read-out: Disease Control Level, RB
[14] = Phytophthora infestans, in Solanum lycopersicum, read-out: Disease Control Level, TLB
[15] = Puccinia graminis, read-out: Disease Control Level, WSR

| Compound | pest or weed control at 300 ppm [6] [%] | Disease Control Level, RB [7] | pest or weed control at 38 ppm [7, 13] [%] | pest or weed control at 75 ppm [7, 13] [%] | pest or weed control at 300 ppm [8] [%] | pest or weed control at 300 ppm [9, 14] [%] | pest or weed control at 300 ppm [10, 15] [%] | Disease Control Level, BOT [11] | pest or weed control at 38 ppm [11] [%] | pest or weed control at 75 ppm [11] [%] | pest or weed control at 300 ppm [11] [%] | pest or weed control at 300 ppm [12] [%] | MIC [4] [µg/mL] | pest or weed control at 38 ppm [6] [%] | pest or weed control at 75 ppm [6] [%] | Disease Control Level, GDM ([6]; 150 ppm) | Disease Control Level, WSR [10] | pest or weed control at 75 ppm [10, 15] [%] | further results |
| --- | --- | --- | --- | --- | --- | --- | --- | --- | --- | --- | --- | --- | --- | --- | --- | --- | --- | --- | --- |
| Cc1c(SC(=S)N(C)C)sn(-c2ccc(Cl)cc2Cl)c1=O [Example 10] |  |  |  |  |  |  |  |  |  |  |  |  |  |  |  |  |  |  | SDT, MIC [1]: 500 PPM; SDT, MIC [2]: 500 PPM; SDT, MIC [3]: 250 PPM; SDT, MIC [4]: 500 PPM; SDT, MIC [5]: 500 PPM |
| Cc1c(SC(=S)N(C)C)sn(-c2ccccc2)c1=O [Example 2, 5-(N,N-Dimethylthiocarbamoyl)thio-4-methyl-2-phenyl-4-isothiazolin-3-one] | 50 | A/E | 90 to 96 | 90 to 96 | 50 | 50 | 70 to 89 | B/C | 70 to 89 | 90 to 96 | 90 to 96 | 50 |  |  |  |  |  |  | MIC [1]: 500 µg/mL (≈ 1610 µM); MIC [2]: > 500 µg/mL; MIC [5]: 500 µg/mL (≈ 1610 µM) |
| N#Cc1cc(=O)n(CCc2ccccc2)s1 [Example 15, 5-Cyano-2-phenethyl-4-isothiazolin-3-one] |  |  |  |  |  |  |  |  |  |  |  |  | > 500 |  |  |  |  |  |  |
| Cn1sc(SC(=S)N2CCCC2)cc1=O [Example 13, 2-Methyl-5-[N,N-tetramethylenethiocarbamoyl]thio-4-isothiazolin-3-one] | 97 to 100 | A/E | 90 to 96 | 90 to 96 | 50 | 90 to 96 | 90 to 96 | A/E | 70 to 89 | 70 to 89 | 97 to 100 | 50 | > 500 | 97 to 100 | 97 to 100 | A/E | C/E | 70 to 89 | pest or weed control at 300 ppm [7, 13]: 90 to 96%; Disease Control Level, TLB ([9]; 150 ppm, tomato seedlings): A/E; pest or weed control at 38 ppm [9, 14]: 50%; pest or weed control at 75 ppm [9, 14]: 90 to 96%; pest or weed control at 38 ppm [10, 15]: 70 to 89% |
| Cc1c(SC(=S)N(C)C)sn(-c2ccc(Br)cc2)c1=O [Example 8] |  | A/E |  |  |  |  |  |  |  |  |  |  |  |  |  | A/B | C/C |  | SDT, MIC [1]: 500 PPM; SDT, MIC [2]: 500 PPM; SDT, MIC [3]: 250 PPM; SDT, MIC [4]: 500 PPM; SDT, MIC [5]: 500 PPM |
| CN(C)C(=S)Sc1sn(CCc2ccccc2)c(=O)c1Cl [Example 3, 4-Chloro-5-(N,N-dimethylthiocarbamoyl)thio-2-phenethyl-4-isothiazolin-3-one] | 50 |  |  |  | 50 | 50 | 70 to 89 |  |  |  | 50 | 50 | > 500 |  |  |  |  |  | pest or weed control at 300 ppm [7, 13]: 50% |
| CN(C)C(=S)Sc1cc(=O)n(Cc2ccccc2)s1 [Example 1, 2-Benzyl-5-(N,N-dimethylthiocarbamoyl)thio-4-isothiazolin-3-one] | 90 to 96 | A/E | 97 to 100 | 97 to 100 | 50 | 50 | 90 to 96 | B/B | 70 to 89 | 70 to 89 | 90 to 96 | 97 to 100 | > 500 | 50 to 69 | 70 to 89 | C/C | C/C | 50 | pest or weed control at 38 ppm [10, 15]: 50%; pest or weed control at 38 ppm [12]: 50%; pest or weed control at 75 ppm [12]: 50%; pest or weed control at 150 ppm [12]: 50% |
| Cc1c(SC(=S)N(C)C)sn(CCc2ccccc2)c1=O [Example 7] | 50 | B/E | 90 to 96 | 90 to 96 | 50 | 50 | 97 to 100 |  |  |  | 50 | 50 | > 500 |  |  |  |  | 50 | pest or weed control at 38 ppm [10, 15]: 50%; pest or weed control at 150 ppm [10, 15]: 50% |
| O=c1cc(SC(=S)N(Cc2ccccc2)Cc2ccccc2)sn1CCc1ccccc1 [Example 12, 5-(N,N-Dibenzylthiocarbamoyl)thio-2-phenethyl-4-isothiazolin-3-one] | 50 |  |  |  | 50 | 50 | 50 |  |  |  | 50 | 50 |  |  |  |  |  |  | pest or weed control at 300 ppm [7, 13]: 50% |
| CCCCCCCCn1sc(SC(=S)N(C)C)cc1=O [Example 6] | 50 |  |  |  | 50 |  | 97 to 100 |  |  |  | 50 | 50 |  |  |  |  |  |  |  |
| CN(C)C(=S)Sc1cc(=O)n(CCc2ccccc2)s1 [Example 4] | 90 to 96 |  | 50 | 50 | 50 | 50 | 97 to 100 | A/C | 90 to 96 | 90 to 96 | 90 to 96 | 50 | > 500 | 90 to 96 | 97 to 100 | A/A | E/E |  | pest or weed control at 150 ppm [7, 13]: 97 to 100% |
| Cc1c(SC(=S)N(C)C)sn(-c2ccc(Cl)cc2)c1=O [Example 9] |  | A/A |  |  |  |  |  | C/C |  |  |  |  |  |  |  | A/E |  |  | SDT, MIC [1]: 500 PPM; SDT, MIC [2]: 500 PPM; SDT, MIC [3]: 250 PPM; SDT, MIC [4]: 500 PPM; SDT, MIC [5]: 500 PPM |
| CN(C)C(=S)Sc1cc(=O)n(C)s1 [Example 5] | 90 to 96 | A/E | 97 to 100 | 97 to 100 | 50 | 50 | 90 to 96 | A/C | 90 to 96 | 97 to 100 | 90 to 96 | 97 to 100 |  | 97 to 100 | 97 to 100 | A/A | C/E | 50 | Disease Control Level, GDM ([6]; 19 ppm): C/E; pest or weed control at 19 ppm [7, 13]: 97 to 100%; MIC [1]: 500 µg/mL (≈ 2130 µM); MIC [2]: > 500 µg/mL; MIC [5]: 125 µg/mL (≈ 533 µM); pest or weed control at 19 ppm ([12]; 19 ppm): 50%; pest or weed control at 38 ppm [12]: 50%; pest or weed control at 75 ppm [12]: 50%; pest or weed control at 150 ppm [12]: 50% |
